Experimental findings from patent publication US20030166601A1, “Novel colloid synthetic vectors for gene therapy” (priority 1999, published 2003) are described below.

The assay relates to CD-1 mice. Put plainly: Luciferase expression in organs after intravenous injection of pCILuc complexes. It is filed as in vivo. The conditions noted are these: 40 μg pCILuc i.v., 5 h. On the procedure:
Substituted aminoethanols (cationic compounds) were prepared as described in Examples 1-34. Their gene delivery ability was studied in vivo by intravenous injection (Table 1 and 2) using a standard method. The preparations were administered via tail vein injection to mice and gene expression determined after 5 hours. Female CD-1 mice, 13-15 g, were purchased from Charles River Inc. Forty microgram of pCILuc complexed with GC lipids or GC lipid:Chol dispersion as indicated weight ratios. After 5 h, mice were sacrificed and organs were collected. Organs were homogenized in 0.5 ml of lysis buffer and 20 μl of supernatant was used for luciferase assay. Luciferase activity was represented as a mean of relative light unit (RLU) of four mice. The lipids were either used alone or combined with cholesterol and complexed with a luciferase reporter gene plasmid by a standard procedure at a range of weight and charge ratios. For the in vivo screen, 40 μg of pCILuc was complexed with the formulation and injected into the mice.
All compounds were evaluated for in vivo activity. Two critical factors were examined, formulation with or without cholesterol and the ratio of cationic lipid to DNA. Cholesterol was tested at 1:1 mole ratio of lipid:chol. The studies were performed with a dose of 40 μg of pCILuc complexed with cationic lipid or lipid: Chol (1:1 mole ratio) injected i.v. into CD-1 mice and then luciferase activity in different organs determined 5 h later. The first evaluation included all of 14 GC-lipids at weight ratios of 2 and 10 (GC lipid to DNA). It was performed by four separated experiments. Each time cationic liposome DOTAP:Chol was used as a standard control.
Measurements were repeated with lipids GC-030, GC-034 and GC-029 at wider weight ratios than the first experiment. Luciferase activity is represented as a mean of relative light unit (RLU) of four mice. WR means weight ratio of GC lipids to DNA. The transfection activity was represented by luciferase activity RLU/organ. […] The transfection activity increased with the increased weight ratio (GC lipids to DNA). Inclusion of cholesterol can change the biodistribution of gene expression in the different organs examined. […] However this function of cholesterol was not seen with GC-034.

In the case of `CC(C)CCC[C@@H](C)[C@H]1CC[C@H]2[C@@H]3CC=C4C[C@@H](OC(=O)NCCNC(=O)[C@@H](N)CCCN)CC[C@]4(C)[C@H]3CC[C@]12C` [GC-003], under “WR 2”, the “Luciferase RLU/20 μl lysate heart” value is listed as 37 RLU/20 μl lysate, the “Luciferase RLU/20 μl lysate kidney” value came out at 38 RLU/20 μl lysate, the “Luciferase RLU/20 μl lysate liver” value stood at 33 RLU/20 μl lysate and the “Luciferase RLU/20 μl lysate lung” value turned out to be 37 RLU/20 μl lysate. For the setting “WR 10”, the “Luciferase RLU/20 μl lysate heart” value is reported as 39 RLU/20 μl lysate, the “Luciferase RLU/20 μl lysate kidney” value turned out to be 40 RLU/20 μl lysate, the “Luciferase RLU/20 μl lysate liver” value was 73 RLU/20 μl lysate and the “Luciferase RLU/20 μl lysate lung” value turned out to be 69 RLU/20 μl lysate. For the same compound, the “Luciferase RLU/20 μl lysate spleen” value (WR 10) stood at 65 RLU/20 μl lysate. Moreover, the “Luciferase RLU/20 μl lysate spleen” value (WR (lipid to DNA) 2) was 36 RLU/20 μl lysate.
Take `CCCCCCCCCCCCCCCCCCN(CCCCCCCCCCCCCCCCCC)C(=O)CNC(=O)[C@H](CCCN(CCCN)CCCN)N(CCCN)CCCN.O=C(O)C(F)(F)F.O=C(O)C(F)(F)F.O=C(O)C(F)(F)F.O=C(O)C(F)(F)F.O=C(O)C(F)(F)F.O=C(O)C(F)(F)F` [GC-016]: for the setting “WR 2”, the “Luciferase RLU/20 μl lysate heart” value is 44 RLU/20 μl lysate, the “Luciferase RLU/20 μl lysate kidney” value turned out to be 41 RLU/20 μl lysate, the “Luciferase RLU/20 μl lysate liver” value was found to be 38 RLU/20 μl lysate and the “Luciferase RLU/20 μl lysate lung” value is 45 RLU/20 μl lysate. In addition, under “WR 10”, the “Luciferase RLU/20 μl lysate heart” value was 40 RLU/20 μl lysate, the “Luciferase RLU/20 μl lysate kidney” value was 40 RLU/20 μl lysate, the “Luciferase RLU/20 μl lysate liver” value amounted to 95 RLU/20 μl lysate and the “Luciferase RLU/20 μl lysate lung” value is recorded as 67 RLU/20 μl lysate. Also, the “Luciferase RLU/20 μl lysate spleen” value (WR 10) was determined as 230 RLU/20 μl lysate. Further, the “Luciferase RLU/20 μl lysate spleen” value (WR (lipid to DNA) 2) was 40 RLU/20 μl lysate.
In the case of `CCCCCCCCCCCCCCCCCCN(CCCCCCCCCCCCCCCCCC)C(=O)[C@H](CSSC[C@H](NC(=O)[C@@H](N)CCCN)C(=O)N(CCCCCCCCCCCCCCCCCC)CCCCCCCCCCCCCCCCCC)NC(=O)[C@@H](N)CCCN.O=C(O)C(F)(F)F.O=C(O)C(F)(F)F.O=C(O)C(F)(F)F.O=C(O)C(F)(F)F` [GC-025], under “WR 2”, the “Luciferase RLU/20 μl lysate heart” value stood at 33 RLU/20 μl lysate, the “Luciferase RLU/20 μl lysate kidney” value turned out to be 25 RLU/20 μl lysate, the “Luciferase RLU/20 μl lysate liver” value amounted to 38 RLU/20 μl lysate and the “Luciferase RLU/20 μl lysate lung” value amounted to 40 RLU/20 μl lysate. Further, for the setting “WR 10”, the “Luciferase RLU/20 μl lysate heart” value was determined as 27 RLU/20 μl lysate, the “Luciferase RLU/20 μl lysate kidney” value is on record as 28 RLU/20 μl lysate, the “Luciferase RLU/20 μl lysate liver” value stood at 27 RLU/20 μl lysate and the “Luciferase RLU/20 μl lysate lung” value was 30 RLU/20 μl lysate. Further, the “Luciferase RLU/20 μl lysate spleen” value (WR 10) was 32 RLU/20 μl lysate. In addition, the “Luciferase RLU/20 μl lysate spleen” value (WR (lipid to DNA) 2) is 46 RLU/20 μl lysate.
For `CCCCCCCCCCCCCCCCCCN(CCCCCCCCCCCCCCCCCC)C(=O)C(CSSCC(NC(=O)C(CCCNCCCN)NCCCN)C(=O)N(CCCCCCCCCCCCCCCCCC)CCCCCCCCCCCCCCCCCC)NC(=O)C(CCCNCCCN)NCCCN.O=C(O)C(F)(F)F.O=C(O)C(F)(F)F.O=C(O)C(F)(F)F.O=C(O)C(F)(F)F.O=C(O)C(F)(F)F.O=C(O)C(F)(F)F.O=C(O)C(F)(F)F.O=C(O)C(F)(F)F` (stereo not shown) [GC-026], for the setting “WR 2”, the “Luciferase RLU/20 μl lysate heart” value is listed as 42 RLU/20 μl lysate, the “Luciferase RLU/20 μl lysate kidney” value came to 41 RLU/20 μl lysate, the “Luciferase RLU/20 μl lysate liver” value was found to be 39 RLU/20 μl lysate and the “Luciferase RLU/20 μl lysate lung” value is on record as 40 RLU/20 μl lysate. Besides, for the setting “WR 10”, the “Luciferase RLU/20 μl lysate heart” value is on record as 0 RLU/20 μl lysate, the “Luciferase RLU/20 μl lysate kidney” value is 0 RLU/20 μl lysate, the “Luciferase RLU/20 μl lysate liver” value is 0 RLU/20 μl lysate and the “Luciferase RLU/20 μl lysate lung” value came out at 0 RLU/20 μl lysate. Also, the “Luciferase RLU/20 μl lysate spleen” value (WR 10) was determined as 0 RLU/20 μl lysate. Moreover, the “Luciferase RLU/20 μl lysate spleen” value (WR (lipid to DNA) 2) was determined as 40 RLU/20 μl lysate.
